From patent US10653658B2, “Biofilm inhibiting compositions enhancing weight gain in livestock” (Akeso Biomedical, Inc., priority 2015, dated 2020)

Key:
Campylobacter jejuni = assay: Campylobacter carriage in chickens after oral challenge, caecal contents at day 35 (Example 9); assay type: in vivo; conditions: 340 μM in the drinking water; oral challenge at day 14
Experimental: A study was performed to evaluate reduction of Campylobacter carriage in chickens using ferric lactate in one treatment group, and FeQ (Q-PLEX) in a second treatment group. A third treatment group served as a positive control. The ferric lactate and FeQ were administered to the treatment groups at a concentration of 340 μM in the drinking water. Each treatment group comprised 12 birds per pen. All three treatment groups were orally challenged with 10^5 cfu of Campylobacter jejuni at day 14 of the trial. At day 35 all birds were euthanized, and quantitative bacteriology performed on caecal contents.

E. coli = E. coli cfu/g of caeca at day 42 (Example 10); assay type: in vivo
Experimental: A study was performed to evaluate growth promotion and reduction of Campylobacter carriage using FeTyr in Ross 308 male broilers with 7 treatment groups. Each treatment group comprised eight replicates of 10 birds per pen (80 birds/treatment group), with 2 control groups and […]. All the test groups and both of the control groups were exposed at day 20 of the trial to dirty litter, which tested positive for Campylobacter. This method was used to provide a more natural method to Campylobacter challenge the birds. Thus there were two positive controls where each treatment group was challenged with Campylobacter, and five treatment groups that were all challenged with Campylobacter. The total number of birds used in the 7 treatment groups was 560.
At day 20, litter, which was naturally Campylobacter-contaminated, was tested to confirm the presence of Campylobacter, and then added (approximately 2 kg/pen) to the litter in all pens. At day 42, caecal samples were taken and tested for Campylobacter, E. coli and Salmonella enumeration.

O=C([O-])C1(O)CC(O)C(O)C(O)C1.O=C([O-])C1(O)CC(O)C(O)C(O)C1.O=C([O-])C1(O)CC(O)C(O)C(O)C1.[Fe+3] (stereo not drawn) [FeQ, Ferric Quinate]
levels of Campylobacter in caeca at day 35 compared with positive control (FIG. 11) (Campylobacter jejuni): lower levels of Campylobacter in their caeca
E. coli cfu/g of caeca at day 42 (FIG. 16) (E. coli; in feed): positive effect on reducing Campylobacter infection
levels of E. coli in poultry upon treatment (E. coli; poultry data): lower levels of E. coli
